According to paper PMC10754118, “Lipophilic Nucleoside Triphosphate Prodrugs of Anti‐HIV Active Nucleoside Analogs as Potential Antiviral Compounds” (Advanced Science, 2023):
Where two headings read alike, the source gives them in different places.

How the values were obtained:
HIV‐2 [ROD] = assay: Anti-HIV activity, HIV-2 in wild-type CEM/0 cells; assay type: cell-based; settings: wild-type CEM/0 cells, mean ±SD n = 2–3, read-out: Antiviral activity CEM/0 HIV‐2 [ROD] EC50
HIV‐1 [HE] = assay: Anti-HIV activity, HIV-1 in wild-type CEM/0 cells; assay type: cell-based; settings: wild-type CEM/0 cells, mean ±SD n = 2–3, read-out: Antiviral activity CEM/0 HIV‐1 [HE] EC50
pig liver esterase (PLE) = assay: Hydrolysis with pig liver esterase (PLE); assay type: in vitro ADME; settings: pig liver esterase (PLE) in PBS, PLE in PBS pH 7.3, 37 °C, read-out: PLE t 1/2 (converted)
Description: Next, TriPPPro‐compounds 10 and 20 were exposed to PLE in PBS (pH 7.3) and the half‐lives of TriPPPro‐compounds 10 and 20 are listed in Table 1. […] In contrast, the cleavage of the AB (C4) masking group in TriPPPro‐compounds 10by–hy and 10bz–hz was triggered by ester hydrolysis and yielded the corresponding γ‐alkylated nucleoside triphosphate derivatives 20 (Figure 3B,D) and 21 (Figures S17 and S18, Supporting Information), respectively. […] Moreover, a very small amount of NDPs was observed, probably due to a reaction involving a nucleophilic reaction at the γ‐phosphate or γ‐phosphonate moiety (pathways d and f, Scheme 5). […]
(§1) Part 4. Chemical Hydrolysis of TriPPPro-compounds 10 and 20.
Second prepare 1.9 mM hydrolysis
Part 5. Hydrolysis of TriPPPro-compounds 10 and 20 with PLE .
Second, 125 µL DMSO and 833 µL
62.5 µL of PLE solution in PBS (100
mixture was stored in the freezer (- 30 °C).
by analytical HPLC (HPLC Method).
similar to that for the chemical hydrolysis studies. […]
(§2) Then, aliquots of 50 µL human

HIV‐2 [ROD)] = assay: Anti-HIV activity, HIV-2 in thymidine kinase-deficient CEM/TK^− cells; assay type: cell-based
in vitro [1] = settings: human
Protocol: The hydrolysis properties of TriPPPro‐compounds 10 and 20 were evaluated in phosphate buffer saline (PBS, pH 7.3), pig liver esterase (PLE) or CEM/0 cell extracts. In both cases, hydrolysis products were analyzed by means of analytical RP18‐HPLC and the hydrolysis half‐lives (Table 1 , t1/2 ) of TriPPPro‐compounds 10 and 20 were calculated after complete consumption of the starting materials.
The hydrolysis of TriPPPro‐compounds 10 and 20 was carried out with CEM/0 cell extracts as well. […]
Part 6. Enzyme-Catalyzed Hydrolysis of TriPPPro-compounds 10 and 20 in CEM Cell […]
First prepare 3.0 mM hydrolysis solutions of Tri PPPro-compounds 10 and 20 in DMSO and H2O: 21 µL stock solution (50 mM in DMSO) and 154 µL DMSO, and 175 µL Milli-Q water. Three-twelve different samples (20 µL 3.0 mM hydrolysis solutions) were prepared in 2 mL Eppendorf® vials. Then, aliquots of 50 µL human CEM cell extracts were added to these samples and the reaction was started. The samples were incubated at 37 °C in a thermomixer for different time periods. The reaction was stopped by addition of 150 µL MeOH and kept on ice for 5 min. After centrifugation at 14,000 rpm for 12 min, the supernatants were filtered (Chromafil RC-20/15 MS, 0.2 μm) and stored in liquid nitrogen. When testing, aliquots of 60 µL (injection volume) were analyzed by analytical HPLC (HPLC Method). The calculation of t1/2 was obtained using Origin again.
(§3) Part 7. Hydrolysis of TriPPPro-compounds 10 and 20 in human plasma.
µL 3.0 mM hydrolysis solutions) were prepared in 2 mL Eppendorf® vials.

in vitro [2] = settings: human, plasma
Protocol: First prepare 50 mM solutions of TriPPPro-compounds 10 and 20 in DMSO. […]
First prepare 3.0 mM hydrolysis solutions of Tri PPPro-compounds 10 and 20 in DMSO and H2O: 21 µL stock solution (50 mM in DMSO) and 154 µL DMSO, and 175 µL Milli-Q water. Three-twelve different samples (20 […]
The calculation of t1/2 was obtained using Origin again.
as §3
µL 3.0 mM hydrolysis solutions) were prepared in 2 mL Eppendorf® vials. Then, aliquots of 50 µL human Plasma (Heparin or Citrate) were added to these samples and the reaction was started. The samples were […]
incubated at 37 °C in a thermomixer for different time periods. The reaction was stopped by addition of 150 µL MeOH and kept on ice for 5 min. After centrifugation at 14,000 rpm for 22 min, the supernatants were filtered (Chromafil RC-20/15 MS, 0.2 μm) and stored in liquid nitrogen. When testing, aliquots of 25 0r 30 µL (injection volume) were analyzed by analytical HPLC (HPLC Method). The calculation of t1/2 was obtained using Origin […]
Part 8. Preparation of cell extracts and human plasma. […]

[3] = Chemical hydrolysis in phosphate buffer saline (PBS, pH 7.3); assay type: physicochemical; settings: PBS pH 7.3, 37 °C, read-out: PBS pH 7.3 t 1/2 (converted)
Protocol: as §1
Second prepare 1.9 mM hydrolysis […]
as §2

in vitro [4] = settings: human, CEM/0 cells (wild-type CD4+ T-cells)
Protocol: (§4) All TriPPPro‐compounds 10 and 20, as well as their parent nucleosides and the corresponding NTPs, were evaluated for their antiviral activity (expressed as EC50 values) against HIV‐1 (wild‐type CEM/0 cells) and HIV‐2 (wild‐type CEM/0 cells and thymidine kinase‐deficient (CEM/TK^−) cells) with concomitant determination of cytotoxicity in the same cell line (Table 3 ).

CEM/0 = assay: in vitro; settings: read-out: Toxicity CEM/0 CC50; 50% cytostatic concentration, CEM proliferation
Protocol: as §4

HIV‐RT = molecular target: T1, HIV‐RT (Human immunodeficiency virus type 1 group M subtype B, UniProt P03366); parameters: method as in PMID 37647547; settings: cited from earlier work
T1 construct: HIV reverse transcriptase (HIV‐RT); purchased Roboklon

[5] = thymidine kinase-deficient CEM/TK^− cells, mean ±SD n = 2–3; read-out: Antiviral activity CEM/TK^− HIV‐2 [ROD)] EC50

Row | Compound | EC50 (HIV‐2 [ROD]) | EC50 (HIV‐1 [HE]) | EC50 (HIV‐2 [ROD)]; [5]) | CC50 (CEM/0) | other results
1 | CCCCCCCCCCCCCCCCCCOP(=O)(O)OP(=O)(O)OP(=O)(O)OC[C@@H]1C=C[C@H](n2cnc3c(NC4CC4)nc(N)nc32)C1 [20h, γ‐C18‐ABCTP] | – | – | – | – | EC50 (HIV‐2 [ROD]; Human immunodeficiency virus 2, CCRF-CEM): 420 ± 110 nM; EC50 (HIV‐1 [HE]; Human immunodeficiency virus 1, CCRF-CEM): 260 ± 130 nM; half-life at 0.45 mM (pig liver esterase (PLE)): > 150 h; EC50 (HIV‐2 [ROD)]; Human immunodeficiency virus 2, CEM-TK(-), thymidine kinase-deficient CEM/TK^− cells, mean ±SD n = 2–3; read-out: Antiviral activity CEM/TK^− HIV‐2 [ROD)] EC50): 160 ± 160 nM; half-life at 0.86 mM (in vitro [1]): > 10 h; half-life at 0.86 mM (in vitro [2]; Plasma (Citrate) t 1/2): > 20 h; half-life at 0.86 mM (in vitro [2]; Plasma (Heparin) t 1/2): 4.8 h; half-life at 1.9 mM [3]: > 83.3 days; CC50 (in vitro [4]): > 100000 nM
2 | Nc1nc(NC2CC2)c2ncn([C@H]3C=C[C@@H](COP(=O)(O)OP(=O)(O)OP(=O)(O)O)C3)c2n1 [ABCTP, reference compound] | 1020 ± 130 nM | 1850 ± 2140 nM | 850 ± 400 nM | > 100000 nM | –
3 | O=c1[nH]c(=O)n([C@H]2C[C@H](O)[C@@H](COP(=O)(O)OP(=O)(O)OP(=O)(O)O)O2)cc1/C=C/Br [BVDUTP, reference compound] | 5640 ± 4450 nM | 4730 ± 3050 nM | > 100000 nM | > 100000 nM | –
4 | Cc1cn([C@H]2C[C@H](F)[C@@H](COP(=O)(O)OP(=O)(O)OP(=O)(O)O)O2)c(=O)[nH]c1=O [FLTTP, reference compound] | 18 ± 9 nM | 7.6 ± 9.1 nM | 4920 ± 2430 nM | > 100000 nM | –
5 | Nc1nc(=O)n([C@@H]2CS[C@H](COP(=O)(O)OP(=O)(O)OP(=O)(O)O)O2)cc1F [FTCTP, reference compound] | 43 ± 40 nM | 28 ± 15 nM | 25 ± 27 nM | > 100000 nM | –
6 | O=c1[nH]c(=O)n([C@H]2C[C@H](F)[C@@H](COP(=O)(O)OP(=O)(O)OP(=O)(O)O)O2)cc1Cl [FddClUTP, reference compound] | 650 ± 130 nM | 840 ± 860 nM | > 100000 nM | > 100000 nM | –
7 | O=c1ccn([C@H]2C[C@H](F)[C@@H](COP(=O)(O)OP(=O)(O)OP(=O)(O)O)O2)c(=O)[nH]1 [FddUTP, reference compound] | 260 ± 320 nM | 150 ± 130 nM | 35400 ± 43900 nM | > 100000 nM | –
8 | Cc1cn([C@H]2C=C[C@@H](COP(=O)(O)OP(=O)(O)O)O2)c(=O)[nH]c1=O [d4TDP] | – | – | – | – | accepted by HIV‐RT as a substrate (HIV‐RT): accepted
9 | Cc1cn([C@H]2C=C[C@@H](COP(=O)(O)OP(=O)(O)OP(=O)(O)O)O2)c(=O)[nH]c1=O [d4TTP] | – | – | – | – | accepted by HIV‐RT as a substrate (HIV‐RT): accepted
